What all share (format): cell-based
One test has as its target T1, BTK-GFP (Homo sapiens, UniProt Q06187+Q96SW2).
T1 construct: the BTK open reading frame (ORF) was first shuttled from a pcDNA-DEST40-BTK vector (Invitrogen library ID INV_20090504v1); expressed in transfected cells; host or cells: HEK293A cells (Invitrogen R70507), lentiviral transduction with pLenti6-BTK-GFP-Ires-RFP, blasticidin-selected
The experiment in a line: BTK-GFP protein abundance flow cytometry assay in HEK293A cells. The note with it: 24 h; for BTK deg Amax %: % protein remaining at concentration of maximum degradation; for DC50: concentration at which 50% maximal degradation was observed. How it is done: (§1) Compounds of the invention were tested in the following cellular assays. The terms in Table 1 are defined as follows: DC50 refers to the concentration at which 50% maximal degradation was observed; deg Amax is the extent of degradation and the value refers to the % protein remaining at the concentration at which maximum degradation is seen; Prol GI50 refers to the proliferation data and defines the concentration at which 50% growth inhibition was observed compared to the vehicle treated control at the end of the incubation time. TMD8 cells are BTK dependent and OCI-LY3 cells are BTK independent.
(§2) BTK-GFP and IKZF3-GFP Protein Abundance Flow Cytometry Assay in HEK293A Cells:
(§3) Degradation of BTK or IKZF3 was measured in HEK293A cells (Invitrogen R70507) expressing either BTK-GFP and RFP or IKZF3-GFP and RFP from a stably integrated bicistronic BTK-GFP-iresRFP or IKZF3-GFP-iresRFP construct, respectively. Reduction of the GFP signal measured by flow cytometry served as readout for BTK or IKZF3 degradation after degrader treatment.
(§4) Stable HEK293A-BTK-GFP-iresRFP cells were maintained in complete growth medium (DMEM high Glucose+10% FCS+1% L-Glutamine+1% NEAA+1% NaPyr.) with passaging performed twice per week. On Day 0, HEK293A-BTK-GFP-iresRFP or HEK293A-IKZF3-GFP-iresRFP and HEK293A-iresRFP cells were seeded at 10,000 cells/well in a 96-well microtiter plate in 260 μl complete medium. On Day 1, cells were treated in duplicate with 10-point 1:3 dilution series of compound using the HP D300 Digital Dispenser (Tecan). DMSO concentrations were normalized across the plate to 0.1%. On Day 2, after 24 h of incubation at 37° C., treatment media was discarded, cells rinsed with 100 ul/well PBS and then detached using 40 ul trypsin/well for 5 min. Trypsin was neutralized with 100 ul/well PBS+20% FCS). Flow cytometry was performed on the samples using the BD FACS CANTO II (Becton Dickinson). Cell identification was then performed using forward (FSC) vs. side scatter (SSC) plots. Single cell discrimination is performed using SSC-Width (SSC-W) vs. SSC-Height (SSC-H) plots. Median GFP values for 5,000 single cells are used to determine BTK levels. Median GFP values from HEK293A-iresRFP are used as a background signal and thus defining 0% BTK signal. Median GFP values from DMSO treated HEK293A-BTK-GFP-iresRFP or HEK293A-IKZF3-GFP-iresRFP are used to define 100% BTK signal for subsequent DC50 curves (concentration at 50% BTK degradation). GFP and RFP are read in the channels called FITC and PE, respectively.
(§5) Concentration response curves plotting relative reduction of the GFP signal (measured by flow cytometry) versus 10 compound concentrations (starting concentration 10 μM, 3 fold dilution steps) of the compounds allowed generation of DC50 values.

The subject of a further test is OCI-LY3 cells. The experiment in a line: Resazurin cell viability assay in DLBCL cells (OCI-LY3). The note with it: Homo sapiens, OCI-Ly3, 72 h, OCI-LY3 cells (BTK independent), 50% growth inhibition, read-out: OCI-LY3 Prol GI50. How it is done: as §1
(§6) Cell Viability Assay in DLBCL (Diffuse Large B-Cell Lymphoma) Cells:
(§7) The effect of the BTK compounds on cell proliferation was measured by a Resazurin (Sigma, #R7017) based cell viability assay. TMD8 (BTK compound sensitive) and OCI-LY3 (BTK compound insensitive) cells were incubated for 72 h at 37° C. and 5% CO2 with the corresponding compound. Resazurin is a non-toxic, cell-permeable substrate that is virtually non-fluorescent. Upon entering living cells, Resazurin (Sigma, #R7017) is reduced to highly fluorescent Resorufin. The metabolic activity was assessed by measuring the fluorescence signal (ex. 530 nm; em. 600 nm).
(§8) TMD8 and OCI-Ly3 cells were seeded at day 0 in triplicates at a cell density of 1×10^4 cells per 150 μl/well in a 96-well plate (Costar #3904). Additional plates were prepared, in order to assess the basal metabolic activity of both cell lines at the beginning of the experiment. For these reference plates, Resazurin (Sigma, #R7017) was added to a final concentration of 13 μg/ml 3 h post seeding and was incubated for 2 h at 37° C. and 5% CO2. Following incubation, the fluorescent signal intensity of the 96-well plates was measured on a Mithras LB940 multimode plate reader at 530/600 nm (Berthold Technologies, Germany).
(§9) In parallel, 3 h post-seeding, test-plates were treated with compound at various concentrations, or with vehicle (DMSO) alone for 3 days. The compound addition to the plates was performed by using a HP D300 digital dispenser (TECAN, Switzerland). The compounds were tested in triplicate, 8-point serial dilution (1:4), with a start concentration of 10 μM for OCI-LY3 and 1 μM for the TMD8 cells, respectively. To assess the relative proliferation of the cells, Resazurin was added to each well directly to the medium to a final concentration of 13 μg/ml. The plates were incubated for 2 h at 37° C. and 5% CO2 to result in a 72 h endpoint. Following incubation, the fluorescent signal intensity of the 96-well plates were measured on a Mithras LB940 multimode plate reader at 530/600 nm (Berthold Technologies, Germany). The formation of Resorufin dye directly correlates with the number of metabolically active cells. For each triplicate treatment the mean and standard deviation were calculated and analyzed via curve fitting software to determine the respective compound concentration resulting in 50% growth inhibition (GI50) values. For each compound GI50 values were typically determined from at least 2 entirely independent experiments.
OCI-LY3 cells were acquired through a license agreement with University Health Network, Toronto, Canada. Cells are cultivated in RPMI1640 media (Gibco, #61870-010, lot. 1894759), supplemented with 10% FCS (HyClone, GE #SH30066.03, lot AB217603), 2 mM L-Glutamine (BioConcept, #5-10K50-H, lot. LA03467P), 1 mM Sodium Pyruvate (BioConcept, #5-60F00-H, lot. LB10510P), 10 mM HEPES (Gibco, #15630-056, lot. 1854074), 1% Pen/Strep (BioConcept, #4-01F00-H, lot. LB04235P).
On the technique in general: The colour change of resazurin is a common sign of viable cells or microbes.

In the next test the test system is TMD8 cells. The experiment in a line: Resazurin cell viability assay in DLBCL cells (TMD8). The following applies: Homo sapiens, TMD8, 72 h, TMD8 cells (BTK dependent), 50% growth inhibition, read-out: TMD8 Prol GI50. How it is done: as §1, §6, §7, §8, §9
TMD8 cells were acquired through a license agreement with Tokyo Medical and Dental University, Japan. Cells are cultivated in MEM Alpha (BioConcept, #1-23F01-I, lot. LB04262P) supplemented with 10% FCS (HyClone, GE #SH30066.03, lot AB217603), 2 mM L-Glutamine (BioConcept, #5-10K50-H, lot. LA03467P), 1% Pen/Strep (BioConcept, #4-01F00-H, lot. LB04235P).

In the next test the target is T2, IKZF3-GFP (Homo sapiens, UniProt Q9UKT9).
T2 construct: gateway cloning of IKZF3 from a pENTR221-IKZF3(STOP-Leu) construct into the previously described pLenti6-DEST-GFP-Ires-RFP vector; expressed in transfected cells; host or cells: HEK293A cells (Invitrogen R70507), lentiviral transduction with pLenti6-IKZF3-GFP-Ires-RFP, blasticidin-selected
T2 sequence (Q96SW2 whole entry partner): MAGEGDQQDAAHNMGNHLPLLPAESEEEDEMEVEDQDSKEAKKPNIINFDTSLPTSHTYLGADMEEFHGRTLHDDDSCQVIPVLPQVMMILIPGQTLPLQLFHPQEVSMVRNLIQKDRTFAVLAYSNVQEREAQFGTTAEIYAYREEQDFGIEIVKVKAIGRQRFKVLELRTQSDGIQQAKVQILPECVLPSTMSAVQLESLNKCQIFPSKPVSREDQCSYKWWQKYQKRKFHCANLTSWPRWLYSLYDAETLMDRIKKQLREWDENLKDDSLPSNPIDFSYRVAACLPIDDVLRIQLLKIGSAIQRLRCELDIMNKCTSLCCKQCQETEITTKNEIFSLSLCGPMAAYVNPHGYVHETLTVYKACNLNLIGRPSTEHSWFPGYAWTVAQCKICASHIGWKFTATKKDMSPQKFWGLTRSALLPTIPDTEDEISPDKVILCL
T2 sequence (Q16531 whole entry partner): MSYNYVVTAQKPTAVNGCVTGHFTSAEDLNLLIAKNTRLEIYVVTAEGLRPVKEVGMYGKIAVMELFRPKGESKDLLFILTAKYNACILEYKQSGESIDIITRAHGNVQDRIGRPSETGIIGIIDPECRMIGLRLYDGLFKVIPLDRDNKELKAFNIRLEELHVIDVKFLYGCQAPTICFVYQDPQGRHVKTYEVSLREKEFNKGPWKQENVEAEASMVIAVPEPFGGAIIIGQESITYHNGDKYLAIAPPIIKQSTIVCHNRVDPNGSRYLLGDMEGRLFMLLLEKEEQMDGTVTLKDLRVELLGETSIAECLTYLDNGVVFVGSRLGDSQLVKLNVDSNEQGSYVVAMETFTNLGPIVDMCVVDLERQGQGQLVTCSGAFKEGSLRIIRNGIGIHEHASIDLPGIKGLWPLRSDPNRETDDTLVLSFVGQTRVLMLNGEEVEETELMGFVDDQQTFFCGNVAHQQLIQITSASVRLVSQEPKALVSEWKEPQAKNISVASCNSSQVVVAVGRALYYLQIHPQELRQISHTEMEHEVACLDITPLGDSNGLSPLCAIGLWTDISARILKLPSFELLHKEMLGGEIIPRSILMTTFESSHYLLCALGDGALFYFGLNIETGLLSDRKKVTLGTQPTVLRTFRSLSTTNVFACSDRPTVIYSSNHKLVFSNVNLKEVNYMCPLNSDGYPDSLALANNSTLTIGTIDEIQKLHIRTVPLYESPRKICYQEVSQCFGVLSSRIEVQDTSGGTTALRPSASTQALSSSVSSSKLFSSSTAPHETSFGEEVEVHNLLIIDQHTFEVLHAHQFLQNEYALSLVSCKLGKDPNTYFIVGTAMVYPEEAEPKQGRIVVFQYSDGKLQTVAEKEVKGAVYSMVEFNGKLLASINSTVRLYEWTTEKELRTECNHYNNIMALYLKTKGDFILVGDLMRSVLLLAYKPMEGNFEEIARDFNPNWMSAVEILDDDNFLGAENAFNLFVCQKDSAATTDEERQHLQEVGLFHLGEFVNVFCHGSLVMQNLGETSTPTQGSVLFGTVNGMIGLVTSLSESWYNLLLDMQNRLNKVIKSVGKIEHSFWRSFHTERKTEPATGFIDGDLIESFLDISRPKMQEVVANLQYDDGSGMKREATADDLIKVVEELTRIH
T2 sequence (Q9UKT9 whole entry): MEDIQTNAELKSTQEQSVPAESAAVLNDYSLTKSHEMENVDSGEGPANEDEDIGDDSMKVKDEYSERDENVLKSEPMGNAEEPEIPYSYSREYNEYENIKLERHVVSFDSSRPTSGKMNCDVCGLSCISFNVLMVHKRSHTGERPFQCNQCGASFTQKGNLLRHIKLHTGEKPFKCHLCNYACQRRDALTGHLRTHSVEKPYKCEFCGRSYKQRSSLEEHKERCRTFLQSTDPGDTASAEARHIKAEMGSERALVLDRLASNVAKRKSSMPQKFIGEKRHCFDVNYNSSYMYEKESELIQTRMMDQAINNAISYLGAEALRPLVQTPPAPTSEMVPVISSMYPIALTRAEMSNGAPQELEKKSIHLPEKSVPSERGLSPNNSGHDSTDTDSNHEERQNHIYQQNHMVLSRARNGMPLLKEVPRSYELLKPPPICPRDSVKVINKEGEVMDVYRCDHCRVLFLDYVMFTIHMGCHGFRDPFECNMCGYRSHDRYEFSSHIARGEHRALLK
The experiment in a line: IKZF3-GFP protein abundance flow cytometry assay in HEK293A cells. The following applies: 24 h, Table 1. The procedure: Compounds of the invention were tested in the following cellular assays. […] TMD8 cells are BTK dependent and OCI-LY3 cells are BTK independent.
as §2, §3, §4, §5
Data is shown in Table 2, in which, DC50 refers to the concentration at which 50% maximal degradation was observed; deg Amax is the extent of degradation and the value refers to the % protein remaining at the concentration at which maximum degradation is seen.
A general note: In flow cytometry, cells or beads pass a laser one at a time.

Consider five molecules from patent publication US11541056B2, “3-hydroxy-N-(3-(7H-pyrrolo[2,3-d]pyrimidin-4-yl)phenyl)pyrrolidine-1-carboxamide derivatives” (NOVARTIS AG, priority 2018, dated 2023).

Structures are written as SMILES.

Broadly, the GI50 is the concentration at which growth is held to half of that of the control.

T1 sequence (Q06187 whole entry): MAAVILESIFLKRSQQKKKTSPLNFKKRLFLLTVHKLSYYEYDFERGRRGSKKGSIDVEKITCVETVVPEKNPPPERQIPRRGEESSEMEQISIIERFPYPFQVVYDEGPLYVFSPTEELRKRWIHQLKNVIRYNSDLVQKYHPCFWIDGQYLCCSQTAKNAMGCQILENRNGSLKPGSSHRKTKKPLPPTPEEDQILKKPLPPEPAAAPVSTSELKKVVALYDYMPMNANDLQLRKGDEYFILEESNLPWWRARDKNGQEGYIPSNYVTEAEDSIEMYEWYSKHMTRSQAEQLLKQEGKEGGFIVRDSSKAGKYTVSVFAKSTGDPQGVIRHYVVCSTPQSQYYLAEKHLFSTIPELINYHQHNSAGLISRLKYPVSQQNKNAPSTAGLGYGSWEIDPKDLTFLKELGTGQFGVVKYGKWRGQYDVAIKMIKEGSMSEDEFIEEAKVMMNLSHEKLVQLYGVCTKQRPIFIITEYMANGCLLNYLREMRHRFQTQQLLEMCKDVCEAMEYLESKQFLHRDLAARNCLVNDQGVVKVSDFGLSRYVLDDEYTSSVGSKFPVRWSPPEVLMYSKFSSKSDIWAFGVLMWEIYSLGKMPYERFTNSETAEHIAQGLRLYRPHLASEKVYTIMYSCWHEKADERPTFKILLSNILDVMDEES
T1 sequence (Q96SW2 whole entry): as the sequence (Q96SW2 whole entry partner) above
T1 sequence (Q16531 whole entry partner): as the sequence (Q16531 whole entry partner) above

In the case of `COc1ccc(C(=O)N2CCC(CN3CCN(Cc4ccc(-c5cc6c(-c7cc(F)cc(NC(=O)N8C[C@@H](CC(C)C)[C@H](O)C8)c7C)ncnc6[nH]5)cc4)CC3)CC2)cc1N1CCC(=O)NC1=O` [Compound 10, (3S,4R)—N-(3-(6-(4-((4-((1-(3-(2,4-Dioxotetrahydropyrimidin-1(2H)-yl)-4-methoxybenzoyl)piperidin-4-yl)methyl)piperazin-1-yl)methyl)phenyl)-7H-pyrrolo[2,3-d]pyrimidin-4-yl)-5-fluoro-2-methylphenyl)-3-hydroxy-4-isobutylpyrrolidine-1-carboxamide], at BTK-GFP, the “BTK deg Amax %” value is listed as 7.4%. In addition, the DC50 at BTK-GFP was 15.5 nM; at IKZF3-GFP it was above 370 nM. The GI50 in the test on OCI-LY3 cells worked out at 4080 nM; in the test on TMD8 cells, 2.31 nM. The “IKZF3 deg Amax %” value on IKZF3-GFP (% protein remaining at maximum degradation) was found to be 99.3%.
Take `CCOc1ccc(C(=O)N2CCC3(CCN(CCc4ccc(-c5cc6c(-c7cc(F)cc(NC(=O)N8C[C@H](CC(C)C)[C@@H](O)C8)c7C)ncnc6[nH]5)cc4)CC3)CC2)cc1N1CCC(=O)NC1=O` [Compound 16, (3R,4S)—N-(3-(6-(4-(2-(9-(3-(2,4-dioxotetrahydropyrimidin-1(2H)-yl)-4-ethoxybenzoyl)-3,9-diazaspiro[5.5]undecan-3-yl)ethyl)phenyl)-7H-pyrrolo[2,3-d]pyrimidin-4-yl)-5-fluoro-2-methylphenyl)-3-hydroxy-4-isobutylpyrrolidine-1-carboxamide]: the “BTK deg Amax %” value at BTK-GFP was 19%. This molecule also had a DC50 at BTK-GFP of 4.7 nM. In addition, the GI50 worked out at 5220 nM in the test with OCI-LY3 cells and 0.26 nM with TMD8 cells.
`COc1ccc(C(=O)N2CCC3(CCN(CCc4ccc(-c5cc6c(-c7ccc(F)c(NC(=O)N8C[C@H](CC(C)C)[C@@H](O)C8)c7C)ncnc6[nH]5)cc4)CC3)CC2)cc1N1CCC(=O)NC1=O` [Compound 17, (3R,4S)—N-(3-(6-(4-(2-(9-(3-(2,4-dioxotetrahydropyrimidin-1(2H)-yl)-4-methoxybenzoyl)-3,9-diazaspiro[5.5]undecan-3-yl)ethyl)phenyl)-7H-pyrrolo[2,3-d]pyrimidin-4-yl)-6-fluoro-2-methylphenyl)-3-hydroxy-4-isobutylpyrrolidine-1-carboxamide]: at BTK-GFP, the “BTK deg Amax %” value is listed as 4% and the DC50 came to 5.5 nM. For the same molecule, the 50% growth inhibitory concentration (GI50) in the test on OCI-LY3 cells is above 10000 nM. Moreover, the GI50 with TMD8 cells was determined as 0.49 nM.
Consider `COc1ccc(C(=O)N2CCC(OCCN3CCC(Oc4ccc(-c5cc6c(-c7cc(F)cc(NC(=O)N8C[C@H](CC(C)C)[C@@H](O)C8)c7C)ncnc6[nH]5)cc4)CC3)CC2)cc1N1CCC(=O)NC1=O` [Compound 20, (3R,4S)—N-(3-(6-(4-((1-(2-((1-(3-(2,4-Dioxotetrahydropyrimidin-1(2H)-yl)-4-methoxybenzoyl)piperidin-4-yl)oxy)ethyl)piperidin-4-yl)oxy)phenyl)-7H-pyrrolo[2,3-d]pyrimidin-4-yl)-5-fluoro-2-methylphenyl)-3-hydroxy-4-isobutylpyrrolidine-1-carboxamide], for which, on BTK-GFP, the “BTK deg Amax %” value was 2.4% and the DC50 was found to be 1.1 nM. Besides, in the test on OCI-LY3 cells, the GI50 came to 3700 nM. Besides, the GI50 in the test with TMD8 cells stood at 0.29 nM.
In the case of `COc1ccc(C(=O)N2CCC(CCN3CCC(OCc4ccc(-c5cc6c(-c7cc(F)cc(NC(=O)N8C[C@@H](CC(C)C)[C@H](O)C8)c7C)ncnc6[nH]5)cc4)CC3)CC2)cc1N1CCC(=O)NC1=O` [Compound 21, (3S,4R)—N-(3-(6-(4-(((1-(2-(1-(3-(2,4-Dioxotetrahydropyrimidin-1 (2H)-yl)-4-methoxybenzoyl)piperidin-4-yl)ethyl)piperidin-4-yl)oxy)methyl)phenyl)-7H-pyrrolo[2,3-d]pyrimidin-4-yl)-5-fluoro-2-methylphenyl)-3-hydroxy-4-isobutylpyrrolidine-1-carboxamide], at BTK-GFP, the “BTK deg Amax %” value is 4%. The DC50 on BTK-GFP was determined as 15.6 nM. The GI50 in the test with OCI-LY3 cells is 3600 nM; in the test with TMD8 cells, 1.17 nM.
